Active and inactive are the calls of the source. The rule behind the calls is not given here.
Tests used:
Leishmania amazonensis [1] = test: Antiparasitic activity against Leishmania amazonensis amastigotes infected in mouse RAW264.7 cells measured after 48 hrs; assay type: functional, organism-based; settings: for IC50: RAW264.7, 48 h
Trypanosoma cruzi [2] = test: Antitrypanosomal activity against bloodstream trypomastigote form of Trypanosoma cruzi Y measured after 24 hrs; assay type: functional, organism-based
Trypanosoma cruzi [3] = test: Antitrypanosomal activity against Trypanosoma cruzi Tulahuen expressing beta-galactosidase gene infected in mouse L929 cells measured after 120 hrs; assay type: functional, organism-based; settings: L929, 120 h
[4] = Cytotoxicity against mouse L929 cells assessed as inhibition of cell viability measured after 120 hrs; assay type: toxicity, cell-based
[5] = Cytotoxicity against mouse RAW264.7 cells measured after 48 hrs; assay type: toxicity, cell-based
[6] = Selectivity index, ratio of CC50 for mouse L929 cells to IC50 for Trypanosoma cruzi Tulahuen expressing beta-galactosidase gene infected in mouse L929 cells; assay type: toxicity, cell-based; settings: read-out: Ratio CC50/IC50
Leishmania infantum [7] = test: Antiparasitic activity against Leishmania infantum amastigotes infected in mouse RAW264.7 cells measured after 48 hrs; assay type: functional, organism-based; settings: for IC50: RAW264.7, 48 h
Leishmania amazonensis [8] = test: Antiparasitic activity against Leishmania amazonensis promastigotes infected in mouse RAW264.7 cells measured after 48 hrs; assay type: functional, organism-based
[9] = molecular target: Cruzipain (Trypanosoma cruzi) (UniProt P25779); test: Inhibition of Trypanosoma cruzi cruzain at 100 uM relative to control
Leishmania infantum [10] = test: Antiparasitic activity against Leishmania infantum promastigotes infected in mouse RAW264.7 cells measured after 48 hrs; assay type: functional, organism-based
Trypanosoma cruzi [11] = test: Antitrypanosomal activity against tissue-culture derived trypomastigote form of Trypanosoma cruzi Y measured after 120 hrs; assay type: functional
[12] = Cytotoxicity against non-infected mouse peritoneal macrophage cells measured after 24 hrs; assay type: toxicity, cell-based; settings: non-infected peritoneal macrophages, read-out: LC50
[13] = Selectivity index, ratio of LC50 for mouse peritoneal macrophage cells to IC50 for bloodstream trypomastigote form of Trypanosoma cruzi Y; assay type: toxicity; settings: peritoneal macrophages, read-out: Ratio LC50/IC50
[14] = Selectivity index, ratio of CC50 for mouse RAW264.7 cells to IC50 for Leishmania amazonensis amastigotes infected in mouse RAW264.7 cells; assay type: toxicity, cell-based; settings: read-out: Ratio CC50/IC50
[15] = Selectivity index, ratio of CC50 for mouse RAW264.7 cells to IC50 for Leishmania infantum amastigotes infected in mouse RAW264.7 cells; assay type: toxicity, cell-based; settings: read-out: Ratio CC50/IC50

Chain of Cruzipain (Trypanosoma cruzi) (P25779 123-467 limits assumed): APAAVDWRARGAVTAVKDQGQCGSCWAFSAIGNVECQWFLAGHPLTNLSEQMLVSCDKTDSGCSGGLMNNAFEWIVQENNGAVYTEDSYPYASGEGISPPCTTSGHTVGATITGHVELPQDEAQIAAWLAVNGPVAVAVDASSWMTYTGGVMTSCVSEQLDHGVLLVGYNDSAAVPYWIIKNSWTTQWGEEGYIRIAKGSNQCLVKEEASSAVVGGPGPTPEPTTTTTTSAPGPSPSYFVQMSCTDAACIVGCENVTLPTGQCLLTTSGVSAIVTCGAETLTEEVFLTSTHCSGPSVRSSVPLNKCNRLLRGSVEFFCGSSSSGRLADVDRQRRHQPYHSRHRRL

O=C(N/N=C/c1ccc(Br)cc1)c1nc2ccccc2[nH]1
Activity (Leishmania amazonensis [1]): inactive | IC50 (Trypanosoma cruzi [2]): > 500 µM | IC50 (Trypanosoma cruzi [3]): 7.3 µM | CC50 at 120 h [4]: 49.8 µM | CC50 at 48 h [5]: 8.6 µM | selectivity ratio [6]: 6.8 | Activity (Leishmania infantum [7]): inactive | Activity (Leishmania amazonensis [8]): inactive | inhibition [9]: 3% | Activity (Leishmania infantum [10]): inactive

O=C(Cn1ccnc1[N+](=O)[O-])NCc1ccccc1 [BENZNIDAZOLE]
LC50 (Trypanosoma cruzi [11]): 10.8 µM | IC50 (Trypanosoma cruzi [2]): 8.8 µM | IC50 (Trypanosoma cruzi [3]): 1.52 µM | CC50 at 120 h [4]: 2110 µM | selectivity ratio [6]: 1390 | CC50 at 24 h [12]: > 1000 µM | selectivity ratio [13]: 113

O=C(N/N=C/c1ccc2c(c1)OCO2)c1nc2ccccc2[nH]1
IC50 (Leishmania amazonensis [1]): 45.1 µM | IC50 (Trypanosoma cruzi [2]): > 500 µM | IC50 (Trypanosoma cruzi [3]): 105 µM | CC50 at 120 h [4]: 148 µM | CC50 at 48 h [5]: 30.1 µM | selectivity ratio [6]: 1.4 | Activity (Leishmania infantum [7]): inactive | selectivity ratio [14]: 0.7 | Activity (Leishmania amazonensis [8]): inactive | inhibition [9]: 47% | Activity (Leishmania infantum [10]): inactive

COc1cc(/C=N/NC(=O)c2nc3ccccc3[nH]2)ccc1O
Activity (Leishmania amazonensis [1]): inactive | LC50 (Trypanosoma cruzi [11]): 394 µM | IC50 (Trypanosoma cruzi [2]): > 500 µM | IC50 (Trypanosoma cruzi [3]): 65.7 µM | CC50 at 120 h [4]: 72.2 µM | CC50 at 48 h [5]: 89.9 µM | selectivity ratio [6]: 1.1 | Activity (Leishmania infantum [7]): inactive | Activity (Leishmania amazonensis [8]): inactive | inhibition [9]: 38% | Activity (Leishmania infantum [10]): inactive

O=C(N/N=C/c1cccs1)c1nc2ccccc2[nH]1
IC50 (Leishmania amazonensis [1]): 61.4 µM | LC50 (Trypanosoma cruzi [11]): 416 µM | IC50 (Trypanosoma cruzi [2]): > 500 µM | IC50 (Trypanosoma cruzi [3]): 91.7 µM | CC50 at 120 h [4]: 170 µM | CC50 at 48 h [5]: 131 µM | selectivity ratio [6]: 1.9 | IC50 (Leishmania infantum [7]): 48.8 µM | selectivity ratio [15]: 2.7 | selectivity ratio [14]: 2.1 | Activity (Leishmania amazonensis [8]): inactive | inhibition [9]: 24% | Activity (Leishmania infantum [10]): inactive

O=C(N/N=C/c1ccc([N+](=O)[O-])cc1)c1nc2ccccc2[nH]1
Activity (Leishmania amazonensis [1]): inactive | LC50 (Trypanosoma cruzi [11]): 328 µM | IC50 (Trypanosoma cruzi [2]): > 500 µM | IC50 (Trypanosoma cruzi [3]): 202 µM | CC50 at 120 h [4]: > 323 µM | CC50 at 48 h [5]: 84.4 µM | selectivity ratio [6]: > 1.6 | Activity (Leishmania infantum [7]): inactive | Activity (Leishmania amazonensis [8]): inactive | inhibition [9]: 2% | Activity (Leishmania infantum [10]): inactive

O=C(N/N=C/c1ccc(O)cc1)c1nc2ccccc2[nH]1
Activity (Leishmania amazonensis [1]): inactive | LC50 (Trypanosoma cruzi [11]): 233 µM | IC50 (Trypanosoma cruzi [2]): 89.7 µM | IC50 (Trypanosoma cruzi [3]): 68.9 µM | CC50 at 120 h [4]: 170 µM | CC50 at 48 h [5]: 88.8 µM | selectivity ratio [6]: 2.5 | IC50 (Leishmania infantum [7]): 97.4 µM | selectivity ratio [15]: 0.9 | Activity (Leishmania amazonensis [8]): inactive | CC50 at 24 h [12]: > 500 µM | inhibition [9]: 65% | Activity (Leishmania infantum [10]): inactive | selectivity ratio [13]: > 5.6

COc1ccc(/C=N/NC(=O)c2nc3ccccc3[nH]2)cc1
IC50 (Leishmania amazonensis [1]): 35 µM | LC50 (Trypanosoma cruzi [11]): 472 µM | IC50 (Trypanosoma cruzi [2]): 207 µM | IC50 (Trypanosoma cruzi [3]): 80.5 µM | CC50 at 120 h [4]: 170 µM | CC50 at 48 h [5]: 188 µM | selectivity ratio [6]: 2.1 | IC50 (Leishmania infantum [7]): 36.7 µM | selectivity ratio [15]: 5.1 | selectivity ratio [14]: 5.4 | Activity (Leishmania amazonensis [8]): inactive | CC50 at 24 h [12]: > 500 µM | inhibition [9]: 22% | Activity (Leishmania infantum [10]): inactive

COc1cc(/C=N/NC(=O)c2nc3ccccc3[nH]2)cc(OC)c1
IC50 (Leishmania amazonensis [1]): 71.8 µM | IC50 (Trypanosoma cruzi [2]): > 500 µM | IC50 (Trypanosoma cruzi [3]): 29 µM | CC50 at 120 h [4]: 164 µM | CC50 at 48 h [5]: 8.94 µM | selectivity ratio [6]: 5.6 | Activity (Leishmania infantum [7]): inactive | selectivity ratio [14]: 0.1 | Activity (Leishmania amazonensis [8]): inactive | inhibition [9]: 50% | Activity (Leishmania infantum [10]): inactive

O=C(N/N=C/c1ccncc1)c1nc2ccccc2[nH]1
IC50 (Leishmania amazonensis [1]): 172 µM | LC50 (Trypanosoma cruzi [11]): 619 µM | IC50 (Trypanosoma cruzi [2]): > 500 µM | IC50 (Trypanosoma cruzi [3]): 32.4 µM | CC50 at 120 h [4]: 265 µM | CC50 at 48 h [5]: 126 µM | selectivity ratio [6]: 8.2 | Activity (Leishmania infantum [7]): inactive | selectivity ratio [14]: 0.7 | Activity (Leishmania amazonensis [8]): inactive | inhibition [9]: 20% | Activity (Leishmania infantum [10]): inactive

COc1cc(/C=N/NC(=O)c2nc3ccccc3[nH]2)cc(OC)c1OC
IC50 (Leishmania amazonensis [1]): 148 µM | LC50 (Trypanosoma cruzi [11]): 343 µM | IC50 (Trypanosoma cruzi [2]): > 500 µM | IC50 (Trypanosoma cruzi [3]): 35.6 µM | CC50 at 120 h [4]: 203 µM | CC50 at 48 h [5]: 42.3 µM | selectivity ratio [6]: 5.7 | IC50 (Leishmania infantum [7]): > 282 µM | selectivity ratio [14]: 0.3 | IC50 (Leishmania amazonensis [8]; RAW264.7, 48 h): > 282 µM | inhibition [9]: 6% | Activity (Leishmania infantum [10]): inactive

O=C(N/N=C/c1ccc(Cl)cc1)c1nc2ccccc2[nH]1
Activity (Leishmania amazonensis [1]): inactive | IC50 (Trypanosoma cruzi [2]): > 500 µM | IC50 (Trypanosoma cruzi [3]): 14.7 µM | CC50 at 120 h [4]: 51.9 µM | CC50 at 48 h [5]: 12.4 µM | selectivity ratio [6]: 3.5 | IC50 (Leishmania infantum [7]): 28.4 µM | selectivity ratio [15]: 0.4 | Activity (Leishmania amazonensis [8]): inactive | inhibition [9]: 3% | IC50 (Leishmania infantum [10]; RAW264.7, 48 h): > 335 µM

O=C(N/N=C/c1ccc(F)cc1)c1nc2ccccc2[nH]1
IC50 (Leishmania amazonensis [1]): > 354 µM | LC50 (Trypanosoma cruzi [11]): 633 µM | IC50 (Trypanosoma cruzi [2]): > 500 µM | IC50 (Trypanosoma cruzi [3]): 230 µM | CC50 at 120 h [4]: 354 µM | CC50 at 48 h [5]: 57.8 µM | selectivity ratio [6]: 1.5 | IC50 (Leishmania infantum [7]): 18.4 µM | selectivity ratio [15]: 3.1 | Activity (Leishmania amazonensis [8]): inactive | inhibition [9]: 17% | Activity (Leishmania infantum [10]): inactive

O=C(N/N=C/c1ccccc1)c1nc2ccccc2[nH]1
IC50 (Leishmania amazonensis [1]): 191 µM | IC50 (Trypanosoma cruzi [2]): > 500 µM | IC50 (Trypanosoma cruzi [3]): 98.4 µM | CC50 at 120 h [4]: 204 µM | CC50 at 48 h [5]: 123 µM | selectivity ratio [6]: 2.1 | IC50 (Leishmania infantum [7]): 53.7 µM | selectivity ratio [15]: 2.3 | selectivity ratio [14]: 0.6 | Activity (Leishmania amazonensis [8]): inactive | inhibition [9]: 25% | Activity (Leishmania infantum [10]): inactive

COc1ccc(/C=N/NC(=O)c2nc3ccccc3[nH]2)cc1OC
Activity (Leishmania amazonensis [1]): inactive | IC50 (Trypanosoma cruzi [2]): 160 µM | IC50 (Trypanosoma cruzi [3]): 173 µM | CC50 at 120 h [4]: 293 µM | CC50 at 48 h [5]: 53.6 µM | selectivity ratio [6]: 1.7 | Activity (Leishmania infantum [7]): inactive | Activity (Leishmania amazonensis [8]): inactive | CC50 at 24 h [12]: > 500 µM | inhibition [9]: 35% | Activity (Leishmania infantum [10]): inactive | selectivity ratio [13]: > 3.1

COc1cc(/C=N/NC(=O)c2nc3ccccc3[nH]2)cc([N+](=O)[O-])c1O
Activity (Leishmania amazonensis [1]): inactive | LC50 (Trypanosoma cruzi [11]): 369 µM | IC50 (Trypanosoma cruzi [2]): > 500 µM | IC50 (Trypanosoma cruzi [3]): 104 µM | CC50 at 120 h [4]: 124 µM | CC50 at 48 h [5]: 84.4 µM | selectivity ratio [6]: 1.2 | Activity (Leishmania infantum [7]): inactive | Activity (Leishmania amazonensis [8]): inactive | inhibition [9]: 45% | Activity (Leishmania infantum [10]): inactive
